Consider one compound from PMC4891385 (Clinical Drug Investigation, 2016).

In one data set the target is T1, OAT3 (Homo sapiens, UniProt Q8TCC7).
T1 sequence (Q8TCC7 1-542): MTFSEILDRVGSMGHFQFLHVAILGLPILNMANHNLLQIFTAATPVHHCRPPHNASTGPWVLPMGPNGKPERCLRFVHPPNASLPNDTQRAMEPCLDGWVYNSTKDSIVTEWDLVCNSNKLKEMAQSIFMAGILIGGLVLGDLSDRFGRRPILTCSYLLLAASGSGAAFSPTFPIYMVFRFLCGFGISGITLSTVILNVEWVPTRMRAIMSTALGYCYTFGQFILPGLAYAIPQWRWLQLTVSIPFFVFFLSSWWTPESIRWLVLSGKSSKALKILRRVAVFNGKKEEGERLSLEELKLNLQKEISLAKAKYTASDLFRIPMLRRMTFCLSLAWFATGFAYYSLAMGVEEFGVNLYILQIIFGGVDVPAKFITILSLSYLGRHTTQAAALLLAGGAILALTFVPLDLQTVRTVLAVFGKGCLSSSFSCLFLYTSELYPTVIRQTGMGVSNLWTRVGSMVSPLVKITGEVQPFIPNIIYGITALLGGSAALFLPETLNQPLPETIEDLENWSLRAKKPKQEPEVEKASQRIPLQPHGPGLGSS
The experiment in a line: [14C]-lesinurad uptake, substrate test, OAT3 oocytes. The class given is in vitro ADME.

In a further data set the target is T2, OATP1B1 (Homo sapiens, UniProt Q9Y6L6).
T2 sequence (Q9Y6L6 1-691): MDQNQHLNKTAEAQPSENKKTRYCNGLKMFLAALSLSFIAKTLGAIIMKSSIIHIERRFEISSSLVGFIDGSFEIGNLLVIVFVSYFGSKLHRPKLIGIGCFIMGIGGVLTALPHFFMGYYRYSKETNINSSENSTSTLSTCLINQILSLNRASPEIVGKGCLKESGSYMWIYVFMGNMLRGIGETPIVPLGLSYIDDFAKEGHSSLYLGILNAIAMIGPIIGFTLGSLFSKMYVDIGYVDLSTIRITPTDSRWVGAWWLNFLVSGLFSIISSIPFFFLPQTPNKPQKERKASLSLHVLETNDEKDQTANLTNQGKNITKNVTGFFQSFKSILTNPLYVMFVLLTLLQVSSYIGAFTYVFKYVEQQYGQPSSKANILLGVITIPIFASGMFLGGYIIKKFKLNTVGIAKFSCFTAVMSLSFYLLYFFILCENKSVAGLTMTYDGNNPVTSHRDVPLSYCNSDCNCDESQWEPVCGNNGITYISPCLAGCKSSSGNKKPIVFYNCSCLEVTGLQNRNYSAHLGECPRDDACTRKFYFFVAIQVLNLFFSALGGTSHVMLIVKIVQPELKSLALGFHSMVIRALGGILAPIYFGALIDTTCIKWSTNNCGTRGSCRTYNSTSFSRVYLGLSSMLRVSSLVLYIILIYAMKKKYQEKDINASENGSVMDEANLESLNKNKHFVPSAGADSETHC
The experiment in a line: [14C]-lesinurad uptake, substrate test, hOATP1B1 MDCK-II cells. The class given is in vitro ADME.

A further data set concerns the target T3, OCT2 (Homo sapiens, UniProt O15244).
T3 sequence (O15244 1-555): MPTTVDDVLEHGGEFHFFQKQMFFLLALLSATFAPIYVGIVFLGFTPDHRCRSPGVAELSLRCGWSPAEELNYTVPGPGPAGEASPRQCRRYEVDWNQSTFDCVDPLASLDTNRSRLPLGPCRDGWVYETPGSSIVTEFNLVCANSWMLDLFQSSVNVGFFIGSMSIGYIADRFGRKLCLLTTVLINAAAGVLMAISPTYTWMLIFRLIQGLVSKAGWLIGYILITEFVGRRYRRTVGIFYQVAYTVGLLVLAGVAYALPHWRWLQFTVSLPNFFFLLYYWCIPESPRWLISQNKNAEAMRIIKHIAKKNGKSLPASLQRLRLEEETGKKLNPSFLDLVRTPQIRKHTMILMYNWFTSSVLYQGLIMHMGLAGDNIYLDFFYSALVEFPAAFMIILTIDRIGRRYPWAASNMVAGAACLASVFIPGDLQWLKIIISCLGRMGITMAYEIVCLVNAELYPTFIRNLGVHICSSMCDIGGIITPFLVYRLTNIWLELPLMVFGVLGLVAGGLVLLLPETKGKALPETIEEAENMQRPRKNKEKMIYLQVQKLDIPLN
Kind of data set: [14C]-lesinurad uptake, substrate test, hOCT2 MDCK-II cells. It counts as in vitro ADME.

For data set [1] the following is noted: no reference given; cited from earlier work.
The target of the next data set is T4, OCT1 (Homo sapiens, UniProt O15245).
T4 sequence (O15245 1-554): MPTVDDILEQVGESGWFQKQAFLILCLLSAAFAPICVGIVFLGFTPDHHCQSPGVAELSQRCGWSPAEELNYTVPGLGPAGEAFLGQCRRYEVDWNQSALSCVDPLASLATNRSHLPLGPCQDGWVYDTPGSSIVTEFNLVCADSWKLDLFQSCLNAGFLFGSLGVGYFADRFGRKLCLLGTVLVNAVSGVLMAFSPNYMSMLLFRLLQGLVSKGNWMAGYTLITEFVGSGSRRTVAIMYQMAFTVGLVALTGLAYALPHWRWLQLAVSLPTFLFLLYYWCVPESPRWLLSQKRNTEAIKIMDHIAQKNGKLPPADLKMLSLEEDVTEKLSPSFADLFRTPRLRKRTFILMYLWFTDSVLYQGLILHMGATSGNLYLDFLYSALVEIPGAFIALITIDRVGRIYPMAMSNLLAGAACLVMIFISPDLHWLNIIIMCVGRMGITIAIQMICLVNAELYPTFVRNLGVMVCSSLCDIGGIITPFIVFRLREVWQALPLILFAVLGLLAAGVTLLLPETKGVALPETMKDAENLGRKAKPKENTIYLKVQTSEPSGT
The experiment in a line: [14C]-lesinurad uptake, substrate test, hOCT1 MDCK-II cells. It counts as in vitro ADME.

The next data set deals with P-gp (Homo sapiens, UniProt P08183). Kind of data set: [14C]-lesinurad substrate test, MDCK-MDR1 cells. It counts as in vitro ADME.
Sequence of P-gp (P08183 whole entry): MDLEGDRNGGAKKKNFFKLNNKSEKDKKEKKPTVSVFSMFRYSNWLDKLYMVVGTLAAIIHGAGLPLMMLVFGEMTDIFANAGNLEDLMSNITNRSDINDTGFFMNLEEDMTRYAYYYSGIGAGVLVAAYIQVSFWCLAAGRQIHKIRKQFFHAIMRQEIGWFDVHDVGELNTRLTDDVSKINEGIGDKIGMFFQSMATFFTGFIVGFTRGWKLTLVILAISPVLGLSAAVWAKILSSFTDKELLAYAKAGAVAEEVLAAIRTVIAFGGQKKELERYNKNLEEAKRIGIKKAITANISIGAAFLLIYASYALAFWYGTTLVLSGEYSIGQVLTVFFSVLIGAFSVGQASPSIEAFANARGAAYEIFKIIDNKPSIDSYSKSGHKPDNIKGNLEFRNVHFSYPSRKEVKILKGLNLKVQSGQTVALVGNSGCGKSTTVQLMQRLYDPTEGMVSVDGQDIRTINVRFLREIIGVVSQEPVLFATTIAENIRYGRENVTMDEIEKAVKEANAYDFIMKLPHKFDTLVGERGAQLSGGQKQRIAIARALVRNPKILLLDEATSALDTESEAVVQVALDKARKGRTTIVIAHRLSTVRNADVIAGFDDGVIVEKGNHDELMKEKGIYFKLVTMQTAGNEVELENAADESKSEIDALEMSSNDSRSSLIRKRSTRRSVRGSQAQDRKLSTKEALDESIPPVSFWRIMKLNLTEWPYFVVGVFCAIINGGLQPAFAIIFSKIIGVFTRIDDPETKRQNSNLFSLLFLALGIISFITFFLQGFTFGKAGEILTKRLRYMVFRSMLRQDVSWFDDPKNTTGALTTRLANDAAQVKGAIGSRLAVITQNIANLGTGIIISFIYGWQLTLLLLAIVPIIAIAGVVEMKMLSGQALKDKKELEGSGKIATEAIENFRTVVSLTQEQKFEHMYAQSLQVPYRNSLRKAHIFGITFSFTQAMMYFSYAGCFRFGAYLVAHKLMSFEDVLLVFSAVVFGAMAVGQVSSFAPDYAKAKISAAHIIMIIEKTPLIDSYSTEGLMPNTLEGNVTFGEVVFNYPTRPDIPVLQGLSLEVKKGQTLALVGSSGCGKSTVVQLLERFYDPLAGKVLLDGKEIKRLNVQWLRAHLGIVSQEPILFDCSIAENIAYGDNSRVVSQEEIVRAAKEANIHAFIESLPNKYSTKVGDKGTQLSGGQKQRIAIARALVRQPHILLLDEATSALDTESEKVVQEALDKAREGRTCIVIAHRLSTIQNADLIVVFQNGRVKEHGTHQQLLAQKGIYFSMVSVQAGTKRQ

For the compound `O=C(O)CSc1nnc(Br)n1-c1ccc(C2CC2)c2ccccc12` [lesinurad], the Lesinurad as substrate entry at OAT3 was “substrate”; on OATP1B1, “weak substrate”; on OCT2 it was “not a substrate”; at OCT1, “weak substrate”; on P-gp, “not a substrate”. Moreover, at OATP1B1 (lesinurad 10 µM), the “increase in lesinurad uptake in transfected versus non-transfected cells” value is recorded as 2.25 fold. Further, the “accumulation during multiple once-daily dosing” value in data set [1] is on record as “does not accumulate”.
